Drawing on US4968679A, “8-substituted 2-aminotetralins” (Bayer Aktiengesellschaft, priority 1986, dated 1990), this text covers Ki for ten compounds.

The target in the experiment is 5-hydroxytryptamine receptors of the sub-type 1 (5-HT1 receptor). Kind of experiment: Affinity to the 5-HT1 receptor: receptor binding studies using calf hippocampus membrane preparations, 3H-serotonin as radioactively labelled ligand. As to conditions: calf hippocampus membranes; 3H-serotonin radioligand. As to the method: In Table 1, as an example, the high affinity of the compounds according to the invention to 5-hydroxytryptamine receptors of the sub-type 1 is shown. The values specified are data which were determined from receptor binding studies using calf hippocampus membrane preparations. 3 H-serotonin was used for this purpose as radioactively labelled ligand.

A word on the Ki: it is the dissociation constant of the complex between target and ligand, obtained from inhibition or displacement. On to `CCCN(CCC)C1CCc2cccc(Br)c2C1` (stereo not shown) [Example 2, 2-Dipropylamino-8-bromo-1,2,3,4-tetrahydronaphthalene], for which the Ki was determined as 13 nM.

With `CCCN(CCC)C1CCc2cccc(CCNC(=O)OCc3ccccc3)c2C1` (stereo not shown) [Example 42, 2-Dipropylamino-8-(2-benzyloxycarbonylamido-ethyl)-2,3,4-tetrahydronaphthalene], the Ki came out at 5 nM.

Take `CCCN(CCC)C1CCc2cccc(Cl)c2C1` (stereo not shown) [Example 1, 2-Dipropylamino8-chloro-1,2,3,4-tetrahydronaphthalene]: the Ki stood at 20 nM.

As to `CCCN(CCC)C1CCc2cccc(OC)c2C1` (stereo not shown) [R^1 =OCH3, R^2 =R^3 =nC3 H7, reference compound], the Ki was 3 nM.

For the compound `CCCN(CCC)C1CCc2cccc(O)c2C1` (stereo not shown) [R^1 =OH, R^2 =R^3 =nC3 H7, reference compound], the Ki turned out to be 2 nM.

`CCCN(CCC)C1CCc2cccc(OCCNC(=O)OCC)c2C1` (stereo not shown) [Example 28, 2-Dipropylamino-8-(2-ethoxycarbonylamido-ethoxy)1,2,3,4-tetrahydronaphthalene]: the Ki worked out at 4 nM.

On to `CCCCS(=O)(=O)NCCOc1cccc2c1CC(N(CCC)CCC)CC2` (stereo not shown) [Example 26, 2-Dipropylamino-8-(2-butanesulphonamidoethoxy)-1,2,3,4-tetrahydronaphthalene], for which the Ki was 17 nM.

`CCCN(CCC)C1CCc2cccc(OCCNC=O)c2C1` (stereo not shown) [Example 33, 2-Dipropylamino-8-(2-formylamido-ethoxy)-1,2,3,4-tetrahydronaphthalene]: the Ki was found to be 19 nM.

On to `CCCN(CCC)C1CCc2cccc(OCCNC(N)=O)c2C1` (stereo not shown) [Example 30, 2-Dipropylamino-8-ureidoethoxy-1,2,3,4-tetrahydronaphthalene], for which the Ki is 30 nM.

Consider `CCCN(CCC)C1CCc2cccc(C(N)=O)c2C1` (stereo not shown) [Example 6, 2-Dipropylamino-8-carbamoyl-1,2,3,4-tetrahydronaphthalene], for which the Ki stood at 7 nM.
